Patent publication US9895338B1, “Cobalt-polypyridyl complex for treatment of cancer, a pharmaceutical composition and a kit comprising it” (Macau University of Science and Technology, priority 2016, dated 2018)

Columns and labels:
[1] = system: HeLa cells (cervical cancer); assay: MTT cytotoxicity assay, HeLa; type: cell-based; details: 72 h
Protocol: (§1) All prepared cobalt-polypyridyl complexes were dissolved in DMSO at a final concentration of 50 mmol/L and stored at −20° C. before use. Cytotoxicity was assessed by using the 3-(4,5-dimethylthiazol-2-yl)-2,5-diphenyltetrazolium bromide (MTT) (5.0 mg/ml) assay as previously described (Wong, V. K. et al., Cell Death Dis, 2013, 4, e720). Briefly, 4×10^3 cells per well were seeded in 96-well plates before drug treatments. After overnight culture, the cells were then exposed to different concentrations of selected compounds (0.039-100 μmol/L) for 72 h. Cells without drug treatment were used as control. Subsequently, MTT (10 μL) solution was added to each well and incubated at 37° C. for 4 h followed by the addition of 100 μL solubilization buffer (10% SDS in 0.01 mol/L HCl) and overnight incubation. A570 nm was then determined in each well on the next day. The percentage of cell viability was calculated using the following formula: Cell viability (%)=Atreated/Acontrol×100. Data were obtained from three independent experiments. Cells include HeLa cells (cervical cancer), MCF-7 (breast cancer), H1299, H1975, A549 and LLC-1 (lung cancer), HepG2 and Hep3B (liver cancer) and LO2 (normal human hepatocytes).

MCF-7 (breast cancer) = assay: MTT cytotoxicity assay, MCF-7; type: cell-based; details: MCF-7, MTT, 72 h
Protocol: as §1

H1299 (lung cancer) = assay: MTT cytotoxicity assay, H1299; type: cell-based, human; details: 72 h
Protocol: as §1

H1975 (lung cancer) = assay: MTT cytotoxicity assay, H1975; type: cell-based; details: 72 h
Protocol: as §1

A549 (lung cancer) = assay: MTT cytotoxicity assay, A549; type: cell-based; details: 72 h
Protocol: as §1

LLC-1 (lung cancer) = assay: MTT cytotoxicity assay, LLC-1; type: cell-based; details: LLC-1, MTT, 72 h
Protocol: as §1

HepG2 (liver cancer) = assay: MTT cytotoxicity assay, HepG2; type: cell-based; details: 72 h
Protocol: as §1

Hep 3B (liver cancer) = assay: MTT cytotoxicity assay, Hep3B; type: cell-based; details: 72 h
Protocol: as §1

[2] = system: LO2 (normal human hepatocytes); assay: MTT cytotoxicity assay, LO2; type: cell-based; details: 72 h
Protocol: as §1

[3] = system: Taxol-sensitive MCF-7 cancer cells; assay: MTT cytotoxicity, taxol-sensitive MCF-7; type: cell-based; details: MCF-7, MTT, 72 h
Protocol: as §1, with “experiments.” for “experiments. Cells include HeLa cells (cervical cancer), MCF-7 (breast cancer), H1299, H1975, A549 and LLC-1 (lung cancer), HepG2 and Hep3B (liver cancer) and LO2 (normal human hepatocytes).”

[4] = system: Taxol-resistant MCF-7 cancer cells; assay: MTT cytotoxicity, taxol-resistant MCF-7; type: cell-based; details: for IC50: MCF-7, MTT, 72 h; for Resistant Factor: MCF-7, IC50 taxol-resistant over IC50 taxol-sensitive
Protocol: as §1, with “experiments.” for “experiments. Cells include HeLa cells (cervical cancer), MCF-7 (breast cancer), H1299, H1975, A549 and LLC-1 (lung cancer), HepG2 and Hep3B (liver cancer) and LO2 (normal human hepatocytes).”
(§2) All cells were obtained from the American Type Culture Collection (Rockville, Md., USA) unless otherwise specified. Immortalized wild-type and Atg7-deficient mouse embryonic fibroblasts (MEFs) were provided by Professor Masaaki Komatsu (Juntendo University, School of Medicine, Japan). Taxol-resistant types of A549, MCF-7, HCT-8 cancer cells, cisplatin-resistant SGC7901 cancer cells were purchased from KeyGEN BioTECH, China.

[5] = system: Taxol-sensitive HCT8 cancer cells; assay: MTT cytotoxicity, taxol-sensitive HCT8; type: cell-based; details: 72 h
Protocol: as §1, with “experiments.” for “experiments. Cells include HeLa cells (cervical cancer), MCF-7 (breast cancer), H1299, H1975, A549 and LLC-1 (lung cancer), HepG2 and Hep3B (liver cancer) and LO2 (normal human hepatocytes).”

[6] = system: Taxol-resistant HCT8 cancer cells; assay: MTT cytotoxicity, taxol-resistant HCT8; type: cell-based; details: for IC50: HCT8, MTT, 72 h; for Resistant Factor: HCT8, IC50 taxol-resistant over IC50 taxol-sensitive
Protocol: as §1, with “experiments.” for “experiments. Cells include HeLa cells (cervical cancer), MCF-7 (breast cancer), H1299, H1975, A549 and LLC-1 (lung cancer), HepG2 and Hep3B (liver cancer) and LO2 (normal human hepatocytes).”
as §2

[7] = system: Taxol-sensitive A549 cancer cells; assay: MTT cytotoxicity, taxol-sensitive A549; type: cell-based; details: 72 h
Protocol: as §1, with “experiments.” for “experiments. Cells include HeLa cells (cervical cancer), MCF-7 (breast cancer), H1299, H1975, A549 and LLC-1 (lung cancer), HepG2 and Hep3B (liver cancer) and LO2 (normal human hepatocytes).”

[8] = system: Taxol-resistant A549 cancer cells; assay: MTT cytotoxicity, taxol-resistant A549; type: cell-based; details: for IC50: A549, MTT, 72 h; for Resistant Factor: A549, IC50 taxol-resistant over IC50 taxol-sensitive
Protocol: as §1, with “experiments.” for “experiments. Cells include HeLa cells (cervical cancer), MCF-7 (breast cancer), H1299, H1975, A549 and LLC-1 (lung cancer), HepG2 and Hep3B (liver cancer) and LO2 (normal human hepatocytes).”
as §2

[9] = system: cisplatin-sensitive A2780 ovarian cancer cells; assay: MTT cytotoxicity, cisplatin-sensitive A2780; type: cell-based; details: 72 h
Protocol: as §1, with “experiments.” for “experiments. Cells include HeLa cells (cervical cancer), MCF-7 (breast cancer), H1299, H1975, A549 and LLC-1 (lung cancer), HepG2 and Hep3B (liver cancer) and LO2 (normal human hepatocytes).”
(§3) Cisplatin-sensitive or -resistant A2780, OV2008 and C13 cancer cells were provided by Prof. Benjamin Tsang (Department of Obstetrics and Gynecology and Department of Cellular and Molecular Medicine, University of Ottawa, Canada). HCT116 p53^+/+ and p53^−/− isogenic human colon cancer cells were provided by Professor Bert Vogelstein (Ludwig Center at Johns Hopkins, Howard Hughes Medical Institute, USA). All media were supplemented with 10% fetal bovine serum and the antibiotics penicillin (50 U/ml) and streptomycin (50 μg/ml; Invitrogen, Paisley, Scotland, UK). All cell cultures were incubated at 37° C. in a 5% humidified CO2 incubator.

[10] = system: cisplatin-resistant A2780 ovarian cancer cells; assay: MTT cytotoxicity, cisplatin-resistant A2780; type: cell-based; details: for IC50: A2780, MTT, 72 h; for Resistant Factor: A2780, cisplatin-resistant over cisplatin-sensitive
Protocol: as §1, with “experiments.” for “experiments. Cells include HeLa cells (cervical cancer), MCF-7 (breast cancer), H1299, H1975, A549 and LLC-1 (lung cancer), HepG2 and Hep3B (liver cancer) and LO2 (normal human hepatocytes).”
as §3

[11] = system: cisplatin-sensitive SGC-7901 gastric cancer cells; assay: MTT cytotoxicity, cisplatin-sensitive SGC-7901; type: cell-based; details: SGC-7901, MTT, 72 h
Protocol: as §1, with “experiments.” for “experiments. Cells include HeLa cells (cervical cancer), MCF-7 (breast cancer), H1299, H1975, A549 and LLC-1 (lung cancer), HepG2 and Hep3B (liver cancer) and LO2 (normal human hepatocytes).”

[12] = system: cisplatin-resistant SGC-7901 gastric cancer cells; assay: MTT cytotoxicity, cisplatin-resistant SGC-7901; type: cell-based; details: for IC50: SGC-7901, MTT, 72 h; for Resistant Factor: SGC-7901, cisplatin-resistant over cisplatin-sensitive
Protocol: as §1, with “experiments.” for “experiments. Cells include HeLa cells (cervical cancer), MCF-7 (breast cancer), H1299, H1975, A549 and LLC-1 (lung cancer), HepG2 and Hep3B (liver cancer) and LO2 (normal human hepatocytes).”
as §2

[13] = system: OV2008 cervical cancer cells; assay: MTT cytotoxicity, OV2008 (cisplatin-sensitive); type: cell-based; details: 72 h
Protocol: as §1, with “experiments.” for “experiments. Cells include HeLa cells (cervical cancer), MCF-7 (breast cancer), H1299, H1975, A549 and LLC-1 (lung cancer), HepG2 and Hep3B (liver cancer) and LO2 (normal human hepatocytes).”
as §3

[14] = system: OV2008/C13 cervical cancer cells; assay: MTT cytotoxicity, OV2008/C13 (cisplatin-resistant); type: cell-based; details: for IC50: OV2008/C13, MTT, 72 h; for Resistant Factor: OV2008/C13 over OV2008
Protocol: as §1, with “experiments.” for “experiments. Cells include HeLa cells (cervical cancer), MCF-7 (breast cancer), H1299, H1975, A549 and LLC-1 (lung cancer), HepG2 and Hep3B (liver cancer) and LO2 (normal human hepatocytes).”
as §3

[15] = system: HCT116 p53^+/+ colon cancer cells; assay: MTT cytotoxicity, HCT116 p53+/+; type: cell-based, human; details: 72 h
Protocol: as §1, with “experiments.” for “experiments. Cells include HeLa cells (cervical cancer), MCF-7 (breast cancer), H1299, H1975, A549 and LLC-1 (lung cancer), HepG2 and Hep3B (liver cancer) and LO2 (normal human hepatocytes).”
as §3

[16] = system: HCT116 p53^−/− colon cancer cells; assay: MTT cytotoxicity, HCT116 p53-/-; type: cell-based, human; details: for Resistant Factor: HCT116 p53^−/− over HCT116 p53^+/+; for IC50: MTT, 72 h
Protocol: as §1, with “experiments.” for “experiments. Cells include HeLa cells (cervical cancer), MCF-7 (breast cancer), H1299, H1975, A549 and LLC-1 (lung cancer), HepG2 and Hep3B (liver cancer) and LO2 (normal human hepatocytes).”
as §3

SMILES | IC50 [1] | IC50 (MCF-7 (breast cancer)) | IC50 (H1299 (lung cancer)) | IC50 (H1975 (lung cancer)) | IC50 (A549 (lung cancer)) | IC50 (LLC-1 (lung cancer)) | IC50 (HepG2 (liver cancer)) | IC50 (Hep 3B (liver cancer)) | IC50 [2] | IC50 [3] | IC50 [4] | Resistant Factor [4] | IC50 [5] | IC50 [6] | Resistant Factor [6] | IC50 [7] | IC50 [8] | Resistant Factor [8] | IC50 [9] | IC50 [10] | also measured
COc1ccnc(-c2cc(OC)ccn2)c1.COc1ccnc(-c2cc(OC)ccn2)c1.COc1ccnc(-c2cc(OC)ccn2)c1.F[P-](F)(F)(F)(F)F.F[P-](F)(F)(F)(F)F.F[P-](F)(F)(F)(F)F.[Co+3] [complex (VII), [Co^III(4,4′-(OMe)2-Bpy)3](PF6)3] | 12.8 µM | 10.8 µM | 8.71 µM | 9.31 µM | 18.6 µM | 8.71 µM | 15.4 µM | 5.33 µM | 20.6 µM | 9.45 µM | 6.28 µM | 0.66 | 4.3 µM | 1.04 µM | 0.24 | 15 µM | 2.85 µM | 0.19 | 24 µM | 27 µM | Resistant Factor [10]: 1.13; IC50 [11]: 21.6 µM; IC50 [12]: 20.7 µM; Resistant Factor [12]: 0.96; IC50 [13]: 14 µM; IC50 [14]: 20.3 µM; Resistant Factor [14]: 1.45; IC50 [15]: 77.8 µM; Resistant Factor [16]: 0.53; IC50 [16]: 41.3 µM
F[P-](F)(F)(F)(F)F.F[P-](F)(F)(F)(F)F.F[P-](F)(F)(F)(F)F.[Co+3].c1ccc(-c2ccccn2)nc1.c1ccc(-c2ccccn2)nc1.c1ccc(-c2ccccn2)nc1 [complex (VI), [Co^III(N^N)3](PF6)3] | 35.9 µM | 10.1 µM | 14.9 µM | 21 µM | 37.2 µM | 29.2 µM | 22.7 µM | 13.8 µM | 43.7 µM | 8.02 µM | 5.01 µM | 0.62 | 18.5 µM | 10.2 µM | 0.55 | 51.7 µM | 11.1 µM | 0.21 | 55 µM | 54.1 µM | Resistant Factor [10]: 0.98; IC50 [11]: 41.1 µM; IC50 [12]: 41.7 µM; Resistant Factor [12]: 1.01; IC50 [13]: 42.5 µM; IC50 [14]: 37.4 µM; Resistant Factor [14]: 0.88; IC50 [15]: 45.1 µM; Resistant Factor [16]: 1.00; IC50 [16]: 45 µM
